“And” between values parts separate entries of the source, which are not always exact repeats. Equal values may be shown once. Read-outs that look alike come from different tables or passages of the source.
Tests used:
DYRK2 = molecular target: T1, DYRK2 (Homo sapiens, UniProt Q92630); experiment: DYRKs kinase activity assay (33P-ATP, DYRKtide substrate): DYRK2; type: biochemical
T1 construct: purchased Reaction Biology Corporation (assay service)
T1 sequence (Q92630 1-601): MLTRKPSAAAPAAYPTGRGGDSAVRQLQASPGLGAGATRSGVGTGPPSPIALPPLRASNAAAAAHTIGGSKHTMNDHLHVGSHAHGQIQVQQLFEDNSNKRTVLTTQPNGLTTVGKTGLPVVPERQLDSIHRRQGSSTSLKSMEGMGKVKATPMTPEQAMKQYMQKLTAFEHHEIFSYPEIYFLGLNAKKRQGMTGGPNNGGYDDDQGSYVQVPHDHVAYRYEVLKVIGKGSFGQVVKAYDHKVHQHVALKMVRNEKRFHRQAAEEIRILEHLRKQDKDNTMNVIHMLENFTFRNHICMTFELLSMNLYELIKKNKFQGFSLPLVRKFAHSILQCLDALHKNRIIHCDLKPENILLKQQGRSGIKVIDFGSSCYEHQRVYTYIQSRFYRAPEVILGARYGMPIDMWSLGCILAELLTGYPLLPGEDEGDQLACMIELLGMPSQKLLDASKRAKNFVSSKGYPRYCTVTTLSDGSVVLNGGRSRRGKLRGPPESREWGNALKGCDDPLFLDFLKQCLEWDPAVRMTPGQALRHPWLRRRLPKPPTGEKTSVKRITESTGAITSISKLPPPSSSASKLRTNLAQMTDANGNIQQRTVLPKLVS

DYRK2 protein = molecular target: T2, DYRK2 protein (Homo sapiens, UniProt Q92630); experiment: Microscale thermophoresis binding assay; conditions: for Fnorm: triplicates
T2 construct: 6xHis (N, cleaved yes); TEV protease cleavage site (N, cleaved yes); made in house; host or cells: E. coli BL21 (DE3)
T2 sequence (Q92630 72-479 isoform Q92630-2): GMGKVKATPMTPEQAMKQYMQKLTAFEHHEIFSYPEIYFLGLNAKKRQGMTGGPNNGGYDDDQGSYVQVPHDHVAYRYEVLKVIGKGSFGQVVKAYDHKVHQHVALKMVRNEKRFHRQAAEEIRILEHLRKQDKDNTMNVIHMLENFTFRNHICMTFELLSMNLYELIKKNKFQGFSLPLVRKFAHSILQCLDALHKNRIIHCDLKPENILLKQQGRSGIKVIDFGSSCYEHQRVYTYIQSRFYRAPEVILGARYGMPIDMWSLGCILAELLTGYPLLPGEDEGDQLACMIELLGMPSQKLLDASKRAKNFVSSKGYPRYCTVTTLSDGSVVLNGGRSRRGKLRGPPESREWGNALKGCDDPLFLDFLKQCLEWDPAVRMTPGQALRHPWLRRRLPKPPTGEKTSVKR

## CC(C)N1CCN(Cc2ccc(Nc3ncc(F)c(-c4ccc5ncsc5c4)n3)nc2)CC1 [Compound 12]
DYRK2; 0.00152416 µM, duplicates, read-out: % Inhibition DYRK2
  inhibition at 0.00152416 µM: 3.73%
DYRK2; 0.0137174 µM, duplicates, read-out: % Inhibition DYRK2
  inhibition at 0.0137174 µM: 8.64%
DYRK2; 0.0411523 µM, duplicates, read-out: % Inhibition DYRK2
  inhibition at 0.0411523 µM: 21.1%
DYRK2; 0.123457 µM, duplicates, read-out: % Inhibition DYRK2
  inhibition at 0.123457 µM: 34.4%
DYRK2; 0.37037 µM, duplicates, read-out: % Inhibition DYRK2
  inhibition at 0.37037 µM: 57.9%
DYRK2; 1.11111 µM, duplicates, read-out: % Inhibition DYRK2
  inhibition at 1.11111 µM: 76.8%
DYRK2; 3.33333 µM, duplicates, read-out: % Inhibition DYRK2
  inhibition at 3.33333 µM: 87.6%
DYRK2; 10 µM, duplicates, read-out: % Inhibition DYRK2
  inhibition at 10 µM: 82.5%
DYRK2; DYRK2 kinase, Conc. 0.000508053 µM, duplicate values
  % Inhibition: 5.75% and 2.04%
DYRK2; DYRK2 kinase, Conc. 0.00152416 µM, duplicate values
  % Inhibition: 4.49%
DYRK2; DYRK2 kinase, Conc. 0.00152416 µM, duplicate values, read-out: % Inhibition
  inhibition at 0.00152416 µM: 3.73%
DYRK2; DYRK2 kinase, Conc. 0.00457247 µM, duplicate values
  % Inhibition: 3.40% and 7.56%
DYRK2; DYRK2 kinase, Conc. 0.0137174 µM, duplicate values
  % Inhibition: 7.85%
DYRK2; DYRK2 kinase, Conc. 0.0137174 µM, duplicate values, read-out: % Inhibition
  inhibition at 0.0137174 µM: 8.64%
DYRK2; DYRK2 kinase, Conc. 0.0411523 µM, duplicate values
  % Inhibition: 22.26%
DYRK2; DYRK2 kinase, Conc. 0.0411523 µM, duplicate values, read-out: % Inhibition
  inhibition at 0.0411523 µM: 21.1%
DYRK2; DYRK2 kinase, Conc. 0.123457 µM, duplicate values
  % Inhibition: 33.57%
DYRK2; DYRK2 kinase, Conc. 0.123457 µM, duplicate values, read-out: % Inhibition
  inhibition at 0.123457 µM: 34.4%
DYRK2; DYRK2 kinase, Conc. 0.37037 µM, duplicate values
  % Inhibition: 58.41%
DYRK2; DYRK2 kinase, Conc. 0.37037 µM, duplicate values, read-out: % Inhibition
  inhibition at 0.37037 µM: 57.9%
DYRK2; DYRK2 kinase, Conc. 1.11111 µM, duplicate values
  % Inhibition: 75.65%
DYRK2; DYRK2 kinase, Conc. 1.11111 µM, duplicate values, read-out: % Inhibition
  inhibition at 1.11111 µM: 76.8%
DYRK2; DYRK2 kinase, Conc. 3.33333 µM, duplicate values
  % Inhibition: 88.99%
DYRK2; DYRK2 kinase, Conc. 3.33333 µM, duplicate values, read-out: % Inhibition
  inhibition at 3.33333 µM: 87.6%
DYRK2; DYRK2 kinase, Conc. 10 µM, duplicate values
  % Inhibition: 86.13%
DYRK2; DYRK2 kinase, Conc. 10 µM, duplicate values, read-out: % Inhibition
  inhibition at 10 µM: 82.5%
DYRK2; Supplementary Table 1, read-out: IC50 (μM), DYRK2 kinase
  IC50: 0.263 µM
DYRK2; read-out: DYRK2 IC50
  IC50: 0.263 µM
DYRK2 protein
  Kd: 4.21 µM
DYRK2 protein; Ligand Concentration 1.52588e-9 M
  Fnorm: 954.38 ‰ and 953.199 ‰ and 953.894 ‰
DYRK2 protein; Ligand Concentration 3.05176e-9 M
  Fnorm: 952.707 ‰ and 951.359 ‰ and 952.777 ‰
DYRK2 protein; Ligand Concentration 6.10352e-9 M
  Fnorm: 952.691 ‰ and 953.017 ‰ and 952.481 ‰
DYRK2 protein; Ligand Concentration 1.2207e-8 M
  Fnorm: 952.212 ‰ and 953.635 ‰ and 952.43 ‰
DYRK2 protein; Ligand Concentration 2.44141e-8 M
  Fnorm: 953.58 ‰ and 951.571 ‰ and 954.168 ‰
DYRK2 protein; Ligand Concentration 4.88281e-8 M
  Fnorm: 951.243 ‰ and 951.794 ‰ and 952.294 ‰
DYRK2 protein; Ligand Concentration 9.76563e-8 M
  Fnorm: 951.852 ‰ and 953.231 ‰ and 951.931 ‰
DYRK2 protein; Ligand Concentration 1.95313e-7 M
  Fnorm: 949.537 ‰ and 959.016 ‰ and 950.589 ‰
DYRK2 protein; Ligand Concentration 3.90625e-7 M
  Fnorm: 952.367 ‰ and 950.104 ‰ and 950.78 ‰
DYRK2 protein; Ligand Concentration 7.8125e-7 M
  Fnorm: 949.243 ‰ and 949.342 ‰ and 952.357 ‰
DYRK2 protein; Ligand Concentration 1.5625e-6 M
  Fnorm: 951.973 ‰ and 948.051 ‰ and 949.742 ‰
DYRK2 protein; Ligand Concentration 3.125e-6 M
  Fnorm: 946.14 ‰ and 947.629 ‰ and 949.334 ‰
DYRK2 protein; Ligand Concentration 6.25e-6 M
  Fnorm: 948.962 ‰ and 949.021 ‰ and 944.76 ‰
DYRK2 protein; Ligand Concentration 1.25e-5 M
  Fnorm: 945.246 ‰ and 944.859 ‰ and 943.424 ‰
DYRK2 protein; Ligand Concentration 2.5e-5 M
  Fnorm: 944.179 ‰ and 942.478 ‰ and 945.127 ‰
DYRK2 protein; Ligand Concentration 5e-5 M
  Fnorm: 942.507 ‰ and 940.515 ‰ and 942.733 ‰

Reference: paper PMC9133015 (Nature Communications, 2022)
